Results reported in patent US20030033638A1, “Production of transgenic plants of the tagetes species” (priority 1999, published 2003).

Test system: leaves of Tagetes patula plants of genotypes TAG 80 and TAG 81
Test: Determination of phosphinothricin (PPT) toxicity on leaf explants
Type: cell-based
Details: leaf disks 10-60 mm^2 on MS medium with 2% sucrose, 3 mg/l BAP, 1 mg/l IAA; 2 weeks; both genotypes TAG 80 and TAG 81
Protocol: Leaves of Tagetes patula plants of genotypes TAG 80 and TAG 81 (Genbank, IPK Gatersleben) which were established in vitro were cut transversely to the central vein into disks 10-60 mm^2 in size and placed on MS medium supplemented with 2% sucrose, 3 mg/l benzylaminopurine (BAP), 1 mg/l indoleacetic acid (IAA) and different PPT concentrations. Incubation was for 2 weeks in a 16/8 hour light/dark photoperiod at approx. 50 μE/m^2s and at from 21 to 24° C. Then, the number of damaged explants was recorded with reference to the total number of tested explants (FIG. 2). In both Tagetes patula genotypes tested, concentrations starting at 1 mg/l PPT led to the complete destruction of all explants, which is why this concentration was used for the selection after cocultivation.

CP(=O)(O)CC[C@H](N)C(=O)O [PPT, phosphinothricin]
PPT concentration leading to the complete destruction of all explants: ≥ 1 mg/L
